One assay addresses T1, GSPT1 (Homo sapiens, UniProt P15170).
T1 construct: HiBiT-tagged cells were generated using CRISPR-Cas12a technology; endogenous in cells; host or cells: HEK293 (endogenous GSPT1 locus edited with HiBiT knock-in)
Kind of assay: GSPT1 reporter degradation assay (HEK293 hGSPT1 HiBiT-tagged cells). Format: cell-based. The settings on record: 24 hour incubation. Here is the method:
HEK293_hGSPTl_HiBiT-tagged cells were generated using CRISPR-Cas12a technology. Briefly, ˜400,000 HEK293 cells were transiently co-transfected with precomplexed ribonuclear proteins (RNPs) consisting of 80 pmol of crRNA (IDT), 62 pmol of Cas12a protein (IDT), 3 μg of ssODN donor (IDT; Alt® modifications), 78 pmol of electroporation enhancer (IDT), and 200 ng of pMaxGFP (Lonza). The transfection was performed via nucleofection (Lonza, 4D-Nucleofector X-unit) using solution P3 and program CM-130 in a ([…]) cuvette. Five days post-nucleofection, cells were single-cell-sorted for GFP+(transfected) cells by FACs in 96-well plates and clonally selected. Clones were screened and verified for the desired modification via targeted deep sequencing using gene-specific primers with partial Illumina adapter overhangs as previously described. In brief, clonal cell pellets were harvested, lysed, and used to generate gene-specific amplicons with partial Illumina adapters in PCR #1. Amplicons were indexed in PCR #2 and pooled with other targeted amplicons for other loci to create sequence diversity. Additionally, 10% PhiX sequencing control V3 (Illumina) was added to the pooled amplicon library prior to running the sample on a Miseq Sequencer System (Illumina) to generate paired 2×250 bp reads. Samples were demultiplexed using the index sequences, fastq files were generated, and NGS analysis was performed using CRIS.py. Final clones were authenticated using the PowerPlex fusion system (Promega) and tested negative for mycoplasma by the MycoAlertTMPlus mycoplasma detection kit (Lonza).
Editing construct sequences and screening primers are outlined below (sequence from 5′ to 3′). hGSPT1Cas12acrRNA, CAGE635.GSPT1.g1: […]; CAGE635.g1.anti.ssODN: ttcctcacagtattgtgcagggtcatcaagaaaatgctta[…] CAGCCGCTCACgtcCttctctggaaccagtttcagaacttttccaattgcaatggtcttacctagaaatgaaattttaa (HiBiT tag and silent blocking modifications to prevent Cas12a recutting after integration are in upper case); CAGE635.hGSPT1.DS.F: […]; CAGE635.hGSPT1.DS.R: GTGAA GTAGGCTTCTGCAGTC.
The GSPT1 degradation assay was carried out by harvesting the HEK 293T reporter cell lines and resuspending the cells in media formulated for reduced background fluorescence (FluoroBrite; Thermo Fisher). The respective cell lines were seeded at a density of 8,000 cells/well into white-opaque 384-well optical grade assay tissue culture plates (Greiner 781080-20). The cells were incubated overnight at 37° C. to allow for attachment to the assay plate. Dilutions of the compounds were prepared in DMSO from 10 mM compound stocks. Test compounds were added in a 10-point dilution series (typically 10 μM to 100 pM) using a TECAN D300e Digital Dispenser with an upper limit of 0.5% final DMSO. Plates were centrifuged at 320×g for 2 minutes at room temperature, and subsequently incubated at 37° C.
After 24 hour incubation with the compounds, the plates were allowed to cool to room temperature for 10 minutes. 30 μL of HiBiT lytic buffer+1:50 HiBiT substrate Solution were added to each well. Plates were centrifuged at 320×g for 2 minutes at room temperature and then incubated with shaking at room temperature for 10 minutes covered with foil. Plates were read on a CLARIOstar microplate reader (BMG LabTech), measuring at 450 nm (donor emission) and 610 nm or 630 nm (acceptor emission). The DC50 values were determined by regression to best fit four-parameter logistic curves using GraphPad Prism.
In general terms: The HiBiT peptide binds its large partner to form an active luciferase.

The target in assay [1] is T2, human E3 ligase component cereblon (CRBN) (Homo sapiens, UniProt Q96SW2).
T2 construct: host or cells: HEK293T
Description: Cereblon (CRBN) target engagement, NanoBRET TE Intracellular E3 Ligase Assay in transfected HEK-293T cells. The note with it: read-out: CRBN Binding EC50. An outline of the steps:
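Tracer displacement was read as the 610/450 nm BRET signal after 2 h at 37° C with an 11-point dilution series, typically 10 μM to 100 pM. Live HEK-293T cells expressed NanoLuc fused N-terminal to human CRBN together with DDB1. IC50 was fitted with a four-parameter logistic model.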

The target of assay [2] is T3, IKZF2 (Helios) (Homo sapiens, UniProt Q9UKS7).
T3 construct: Leu-Asp junction (codons ctcgac before the linker); mScarlet (behind P2A) (C, cleaved yes); expressed in transfected cells
Kind of assay: IKZF2 reporter degradation assay (HEK 293T IKZF2-mNeonGreen reporter cell line). Format: cell-based. The settings on record: HEK 293T IKZF2-mNeonGreen reporter, 24 hours incubation. An outline of the steps: (§1)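 DC50 values come from four-parameter logistic regression of percent mNeonGreen-positive cells, imaged with mScarlet-based segmentation after 24 h compound exposure at 37° C. Quadruplicate wells had at most 0.5% DMSO. Reporters are C-terminal IKZF-mNeonGreen fusions with P2A-mScarlet, stably expressed in clonal HEK 293T lines.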

For assay [3], the target named is T4, IKZF2 (Helios) (Homo sapiens, UniProt Q96SW2+Q9UKS7).
T4 construct: Leu-Asp junction (codons ctcgac before the linker); mScarlet (behind P2A) (C, cleaved yes); expressed in transfected cells
The description is as above. Format: cell-based. The note with it: HEK-293T, 24 h, @ 1 μM, HEK 293T IKZF2-mNeonGreen reporter, 24 hours incubation. An outline of the steps:
as §1

Another assay concerns the target T5, IKZF3 (Aiolos) (Homo sapiens, UniProt Q9UKT9).
T5 construct: Leu-Asp junction (codons ctcgac before the linker); mScarlet (behind P2A) (C, cleaved yes); expressed in transfected cells
Kind of assay: IKZF3 reporter degradation assay (HEK 293T IKZF3-mNeonGreen reporter cell line). Format: cell-based. The settings on record: HEK 293T IKZF3-mNeonGreen reporter, 24 hours incubation. Summed up: as §1

The target of a further assay is T6, IKZF1 (Ikaros) (Homo sapiens, UniProt Q13422).
T6 construct: mScarlet (behind P2A) (C, cleaved yes); expressed in transfected cells
Kind of assay: IKZF1 reporter degradation assay (HEK 293T IKZF1-mNeonGreen reporter cell line). The assay is classed as cell-based. The note with it: HEK 293T IKZF1-mNeonGreen reporter, 24 hours incubation. Summed up:
as §1

pEC50: −log10 of the molar value. Some results are limits rather than exact numbers.

T5 sequence (Q96SW2 whole entry partner): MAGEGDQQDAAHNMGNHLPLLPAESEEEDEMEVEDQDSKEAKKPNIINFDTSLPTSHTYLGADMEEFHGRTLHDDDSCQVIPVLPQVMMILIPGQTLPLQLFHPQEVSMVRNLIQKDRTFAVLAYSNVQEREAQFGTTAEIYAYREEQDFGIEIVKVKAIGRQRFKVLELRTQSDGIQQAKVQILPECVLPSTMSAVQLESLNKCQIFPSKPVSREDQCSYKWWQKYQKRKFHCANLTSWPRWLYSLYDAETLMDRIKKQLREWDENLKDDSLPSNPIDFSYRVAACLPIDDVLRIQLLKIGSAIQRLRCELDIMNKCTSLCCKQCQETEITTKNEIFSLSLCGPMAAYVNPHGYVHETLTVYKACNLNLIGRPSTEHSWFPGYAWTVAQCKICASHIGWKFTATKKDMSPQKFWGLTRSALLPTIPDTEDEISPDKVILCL
T5 sequence (Q16531 whole entry partner): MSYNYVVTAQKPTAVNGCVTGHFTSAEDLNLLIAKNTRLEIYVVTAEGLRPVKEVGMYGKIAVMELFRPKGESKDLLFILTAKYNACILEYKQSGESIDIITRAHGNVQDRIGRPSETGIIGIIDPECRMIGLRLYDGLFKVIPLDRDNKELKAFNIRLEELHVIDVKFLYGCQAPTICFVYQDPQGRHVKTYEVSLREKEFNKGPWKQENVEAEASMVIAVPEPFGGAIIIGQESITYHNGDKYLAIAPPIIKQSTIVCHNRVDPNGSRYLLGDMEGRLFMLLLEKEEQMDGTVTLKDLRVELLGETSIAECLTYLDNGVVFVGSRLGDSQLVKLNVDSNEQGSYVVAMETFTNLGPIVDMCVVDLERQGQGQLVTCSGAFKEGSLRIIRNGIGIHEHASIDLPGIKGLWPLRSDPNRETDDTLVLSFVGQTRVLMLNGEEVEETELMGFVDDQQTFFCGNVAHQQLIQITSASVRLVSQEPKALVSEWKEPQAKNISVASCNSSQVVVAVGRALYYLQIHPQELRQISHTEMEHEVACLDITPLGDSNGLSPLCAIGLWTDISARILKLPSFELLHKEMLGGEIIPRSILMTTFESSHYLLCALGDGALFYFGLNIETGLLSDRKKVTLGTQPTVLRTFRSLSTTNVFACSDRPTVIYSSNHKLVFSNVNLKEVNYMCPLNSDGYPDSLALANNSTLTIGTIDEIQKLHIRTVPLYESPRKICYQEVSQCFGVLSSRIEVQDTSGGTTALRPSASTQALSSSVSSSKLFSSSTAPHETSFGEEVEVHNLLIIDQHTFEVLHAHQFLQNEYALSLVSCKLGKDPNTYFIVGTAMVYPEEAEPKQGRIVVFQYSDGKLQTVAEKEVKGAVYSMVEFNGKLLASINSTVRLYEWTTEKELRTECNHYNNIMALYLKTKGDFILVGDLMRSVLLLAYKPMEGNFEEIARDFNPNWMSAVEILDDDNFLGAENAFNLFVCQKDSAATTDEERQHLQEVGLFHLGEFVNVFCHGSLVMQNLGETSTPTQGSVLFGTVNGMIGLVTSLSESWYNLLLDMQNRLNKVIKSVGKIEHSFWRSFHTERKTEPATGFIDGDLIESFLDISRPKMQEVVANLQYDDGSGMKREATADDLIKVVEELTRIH
T5 sequence (Q9UKT9 whole entry): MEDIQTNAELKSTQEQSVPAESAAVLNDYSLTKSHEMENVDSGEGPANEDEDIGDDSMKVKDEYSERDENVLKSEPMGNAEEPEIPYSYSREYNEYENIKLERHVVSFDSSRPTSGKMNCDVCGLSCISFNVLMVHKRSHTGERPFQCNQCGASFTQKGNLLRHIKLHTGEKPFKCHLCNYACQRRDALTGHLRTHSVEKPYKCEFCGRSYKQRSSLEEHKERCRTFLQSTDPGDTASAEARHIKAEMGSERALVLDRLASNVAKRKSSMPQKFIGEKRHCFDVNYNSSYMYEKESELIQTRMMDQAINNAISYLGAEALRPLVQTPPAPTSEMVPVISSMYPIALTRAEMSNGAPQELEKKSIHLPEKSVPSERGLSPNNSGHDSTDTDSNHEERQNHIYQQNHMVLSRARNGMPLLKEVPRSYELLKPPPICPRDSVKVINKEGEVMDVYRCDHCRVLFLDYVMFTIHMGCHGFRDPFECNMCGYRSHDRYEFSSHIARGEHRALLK
T6 sequence (Q96SW2 whole entry partner): as the sequence (Q96SW2 whole entry partner) above
T6 sequence (Q16531 whole entry partner): as the sequence (Q16531 whole entry partner) above
T6 sequence (Q13422 whole entry): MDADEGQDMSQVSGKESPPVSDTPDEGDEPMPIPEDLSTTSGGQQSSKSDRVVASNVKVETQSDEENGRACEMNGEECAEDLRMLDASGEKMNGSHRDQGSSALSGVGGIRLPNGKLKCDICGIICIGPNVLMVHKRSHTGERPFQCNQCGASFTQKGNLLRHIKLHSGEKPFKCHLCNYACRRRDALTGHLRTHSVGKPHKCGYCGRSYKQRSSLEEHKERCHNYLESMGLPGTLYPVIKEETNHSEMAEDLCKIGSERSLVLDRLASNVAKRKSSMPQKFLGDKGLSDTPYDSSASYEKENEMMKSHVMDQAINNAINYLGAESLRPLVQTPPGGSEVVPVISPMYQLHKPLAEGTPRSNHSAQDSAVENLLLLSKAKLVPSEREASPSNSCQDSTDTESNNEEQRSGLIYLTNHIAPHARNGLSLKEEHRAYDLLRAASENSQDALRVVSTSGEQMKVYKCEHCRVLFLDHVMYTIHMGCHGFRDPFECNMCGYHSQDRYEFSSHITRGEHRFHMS
T2 sequence (Q96SW2 whole entry): as the sequence (Q96SW2 whole entry partner) above
T2 sequence (Q16531 whole entry partner): as the sequence (Q16531 whole entry partner) above
T4 sequence (Q9UKS7 whole entry): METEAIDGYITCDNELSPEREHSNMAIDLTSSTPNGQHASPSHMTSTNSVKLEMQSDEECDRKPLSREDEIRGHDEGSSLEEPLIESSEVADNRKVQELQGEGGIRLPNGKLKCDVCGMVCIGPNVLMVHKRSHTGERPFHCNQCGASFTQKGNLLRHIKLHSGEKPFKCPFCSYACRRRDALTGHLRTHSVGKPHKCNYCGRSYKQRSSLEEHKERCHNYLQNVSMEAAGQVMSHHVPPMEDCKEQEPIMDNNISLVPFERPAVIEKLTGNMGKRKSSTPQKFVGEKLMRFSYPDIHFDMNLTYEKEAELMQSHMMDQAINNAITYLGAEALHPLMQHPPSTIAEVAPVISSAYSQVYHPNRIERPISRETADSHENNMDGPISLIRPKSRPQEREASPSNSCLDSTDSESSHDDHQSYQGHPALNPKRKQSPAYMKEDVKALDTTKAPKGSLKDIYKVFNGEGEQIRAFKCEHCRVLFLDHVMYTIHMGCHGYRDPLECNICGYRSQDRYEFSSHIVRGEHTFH
T4 sequence (Q96SW2 whole entry): as the sequence (Q96SW2 whole entry partner) above
T4 sequence (Q16531 whole entry partner): as the sequence (Q16531 whole entry partner) above
T3 sequence (Q9UKS7 whole entry): as the sequence (Q9UKS7 whole entry) above
T3 sequence (Q96SW2 whole entry, further chain): as the sequence (Q96SW2 whole entry partner) above
T3 sequence (Q16531 whole entry partner): as the sequence (Q16531 whole entry partner) above
T1 sequence (Q96SW2 whole entry partner): as the sequence (Q96SW2 whole entry partner) above
T1 sequence (Q16531 whole entry partner): as the sequence (Q16531 whole entry partner) above
T1 sequence (P15170 whole entry): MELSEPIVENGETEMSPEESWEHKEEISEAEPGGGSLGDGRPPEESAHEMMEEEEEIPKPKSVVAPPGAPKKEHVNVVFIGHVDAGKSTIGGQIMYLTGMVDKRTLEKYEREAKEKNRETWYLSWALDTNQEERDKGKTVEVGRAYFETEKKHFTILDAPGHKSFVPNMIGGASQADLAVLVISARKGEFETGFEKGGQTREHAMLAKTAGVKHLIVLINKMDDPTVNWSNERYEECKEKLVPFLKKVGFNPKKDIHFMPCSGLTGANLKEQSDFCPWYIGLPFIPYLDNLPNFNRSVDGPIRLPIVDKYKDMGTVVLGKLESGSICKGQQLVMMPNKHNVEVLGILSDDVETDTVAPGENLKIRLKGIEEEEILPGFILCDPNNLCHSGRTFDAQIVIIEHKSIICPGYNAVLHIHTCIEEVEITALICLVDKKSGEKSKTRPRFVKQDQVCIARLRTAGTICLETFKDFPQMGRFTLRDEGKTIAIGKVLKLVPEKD

`Cc1cnc(C2CN([C@H]3CCCC3Oc3ccc4c(c3)CN(C3CCC(=O)NC3=O)C4=O)C2)o1` (mixture of isomers) [Compound 151-B, Rac-3-(5-(((trans)-2-(3-(5-methyloxazol-2-yl)azetidin-1-yl)cyclopentyl)oxy)-1-oxoisoindolin-2-yl)piperidine-2,6-dione]: the DC50 (in general, the concentration giving 50% degradation) on GSPT1 is more than 30000 nM. In assay [1], the pEC50 – broadly, −log10 of the EC50, conventionally taken in molar units – was 7.10.

For the compound `O=C1CCC(N2Cc3cc(OC4CCC[C@@H]4N4CC(c5ccccn5)C4)ccc3C2=O)C(=O)N1` (mixture of isomers) [Compound 209-B, Rac-3-(1-oxo-5-(((cis)-2-(3-(pyridin-2-yl)azetidin-1-yl)cyclopentyl)oxy)isoindolin-2-yl)piperidine-2,6-dione], the DC50 is 230 nM on IKZF2 (Helios) [2], more than 30000 nM at IKZF3 (Aiolos) and more than 30000 nM on IKZF1 (Ikaros). Besides, at IKZF2 (Helios) [3], 1 µM produced 38.9% inhibition. The pEC50 in assay [1] is 7.24.

As for `O=C1CCC(N2Cc3cc(OC4CCCCC4N4CC(c5cccc6[nH]ncc56)C4)ccc3C2=O)C(=O)N1` (centres unmarked) [Compound 211-B, 3-(5-((2-(3-(2H-indazol-4-yl)azetidin-1-yl)cyclohexyl)oxy)-1-oxoisoindolin-2-yl)piperidine-2,6-dione], the DC50 at IKZF2 (Helios) [2] was 64 nM; on IKZF3 (Aiolos), more than 30000 nM; on IKZF1 (Ikaros), more than 30000 nM. In addition, the inhibition (usually how much of the control response was suppressed) at 1 µM against IKZF2 (Helios) [3] is 79.3%. In assay [1], the pEC50 was 7.55.

The compound `O=C1CCC(N2Cc3cc(OC4CCCCC4N4CC(C(=O)N5CCCCC5)C4)ccc3C2=O)C(=O)N1` (single isomer, unassigned) [Compound 23-A, 3-(1-oxo-5-((2-(3-(piperidine-1-carbonyl)azetidin-1-yl)cyclohexyl)oxy)isoindolin-2-yl)piperidine-2,6-dione] gave a DC50 on GSPT1 of more than 30000 nM.

For `O=C1CCC(N2Cc3cc(OC4CCCCC4N4CC(c5ccc6cccnc6c5)C4)ccc3C2=O)C(=O)N1` (centres unmarked) [Compound 193-B, 3-(1-oxo-5-((2-(3-(quinolin-7-yl)azetidin-1-yl)cyclohexyl)oxy)isoindolin-2-yl)piperidine-2,6-dione], the results for the 50% degradation concentration (DC50) on IKZF2 (Helios) [2], at IKZF3 (Aiolos) and on IKZF1 (Ikaros) were 6 nM, more than 30000 nM and more than 30000 nM, respectively. Also, the inhibition at 1 µM at IKZF2 (Helios) [3] stood at 81.9%. Also, the pEC50 in assay [1] is 8.22.

`Cc1cnc(C2CN([C@H]3CCCC[C@@H]3Oc3ccc4c(c3)CN(C3CCC(=O)NC3=O)C4=O)C2)nc1` (mixture of isomers) [Compound 189-B, Rac-3-(5-(((trans)-2-(3-(5-methylpyrimidin-2-yl)azetidin-1-yl)cyclohexyl)oxy)-1-oxoisoindolin-2-yl)piperidine-2,6-dione]: the 50% degradation concentration (DC50) was 123 nM at IKZF2 (Helios) [2], more than 30000 nM on IKZF3 (Aiolos) and more than 30000 nM on IKZF1 (Ikaros). Moreover, the inhibition at 1 µM on IKZF2 (Helios) [3] was determined as 21.2%. In addition, in assay [1], the pEC50 is 7.89.
